Test results taken from ChEMBL document CHEMBL1201861, “Genomics of Drug Sensitity in Cancer screening data, Wellcome Trust Sanger Institute”.

Columns and labels:
Assay in all cases: cells
COLO-741 = assay type: functional, cell-based, Homo sapiens; details: Homo sapiens, COLO-741
Description: SANGER: Inhibition of human COLO-741 cell growth in a cell viability assay.

COLO-829 = assay type: functional, cell-based, Homo sapiens; details: Homo sapiens, COLO-829
Description: SANGER: Inhibition of human COLO-829 cell growth in a cell viability assay.

Calu-3 = assay type: functional, cell-based, Homo sapiens; details: Homo sapiens, Calu-3;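 further: growth inhibition of human Calu-3 cells, determined with a cell viability assay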
Description: SANGER: Inhibition of human Calu-3 cell growth in a cell viability assay.

EKVX = assay type: functional, cell-based, Homo sapiens; details: Homo sapiens, EKVX;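 further: growth inhibition of human EKVX cells, read out with a cell viability assay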
Description: SANGER: Inhibition of human EKVX cell growth in a cell viability assay.

ES8 = assay type: functional, cell-based, Homo sapiens; details: Homo sapiens, ES8;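 further: growth inhibition of human ES8 cells, read out with a cell viability assay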
Description: SANGER: Inhibition of human ES8 cell growth in a cell viability assay.

EW-16 = assay type: functional, cell-based, Homo sapiens; details: Homo sapiens, EW-16;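 further: growth inhibition of human EW-16 cells, read out as cell viability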
Description: SANGER: Inhibition of human EW-16 cell growth in a cell viability assay.

GAK = assay type: functional, cell-based, Homo sapiens; details: Homo sapiens, GAK;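 further: cell growth inhibition read out by a cell viability assay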
Description: SANGER: Inhibition of human GAK cell growth in a cell viability assay.

GI-ME-N = assay type: functional, cell-based, Homo sapiens; details: Homo sapiens, GI-ME-N;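 further: growth inhibition of human GI-ME-N cells, read out with a cell viability assay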
Description: SANGER: Inhibition of human GI-ME-N cell growth in a cell viability assay.

GMS-10 = assay type: functional, cell-based, Homo sapiens; details: Homo sapiens, GMS-10;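 further: growth inhibition of GMS-10 cells, read out as cell viability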
Description: SANGER: Inhibition of human GMS-10 cell growth in a cell viability assay.

HCC2218 = assay type: functional, cell-based; details: Homo sapiens;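 further: cell viability assay read-out, with IC50 given as the concentration that inhibits growth of the cell line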
Description: SANGER: Inhibition of human HCC2218 cell growth in a cell viability assay.

HCC38 = assay type: functional, cell-based, Homo sapiens; details: Homo sapiens, HCC38;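 further: cell viability assay on the human HCC38 cell line, with IC50 marking the concentration that inhibits cell growth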
Description: SANGER: Inhibition of human HCC38 cell growth in a cell viability assay.

HCE-T = assay type: functional, cell-based, Homo sapiens; details: Homo sapiens, HCE-T;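 further: cell viability assay read-out, reporting inhibition of HCE-T cell growth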
Description: SANGER: Inhibition of human HCE-T cell growth in a cell viability assay.

HD-MY-Z = assay type: functional, cell-based, Homo sapiens; details: Homo sapiens, HD-MY-Z;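 further: growth inhibition of HD-MY-Z cells, read out with a cell viability assay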
Description: SANGER: Inhibition of human HD-MY-Z cell growth in a cell viability assay.

HOP-62 = assay type: functional, cell-based, Homo sapiens; details: Homo sapiens, HOP-62;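 further: cell growth inhibition determined with a viability assay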
Description: SANGER: Inhibition of human HOP-62 cell growth in a cell viability assay.

HuP-T3 = assay type: functional, cell-based, Homo sapiens; details: Homo sapiens, HuP-T3;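 further: HuP-T3 cell growth inhibition, read out with a cell viability assay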
Description: SANGER: Inhibition of human HuP-T3 cell growth in a cell viability assay.

IST-MES1 = assay type: functional, cell-based, Homo sapiens; details: Homo sapiens, IST-MES1;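 further: growth inhibition of IST-MES1 cells, measured with a cell viability assay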
Description: SANGER: Inhibition of human IST-MES1 cell growth in a cell viability assay.

KARPAS-299 = assay type: functional, cell-based; details: Homo sapiens
Description: SANGER: Inhibition of human KARPAS-299 cell growth in a cell viability assay.

KP-N-YN = assay type: functional, cell-based; details: Homo sapiens;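 further: growth inhibition of KP-N-YN cells, read out with a cell viability assay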
Description: SANGER: Inhibition of human KP-N-YN cell growth in a cell viability assay.

KURAMOCHI = assay type: functional, cell-based; details: Homo sapiens;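 further: growth inhibition of KURAMOCHI cells, read out with a cell viability assay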
Description: SANGER: Inhibition of human KURAMOCHI cell growth in a cell viability assay.

L-363 = assay type: functional, cell-based; details: Homo sapiens
Description: SANGER: Inhibition of human L-363 cell growth in a cell viability assay.

LB1047-RCC = assay type: functional, cell-based, Homo sapiens; details: Homo sapiens, LB1047-RCC;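 further: inhibition of cell growth, determined with a cell viability assay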
Description: SANGER: Inhibition of human LB1047-RCC cell growth in a cell viability assay.

LK-2 = assay type: functional, cell-based, Homo sapiens; details: Homo sapiens, LK-2;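 further: growth inhibition of LK-2 cells, read out with a viability assay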
Description: SANGER: Inhibition of human LK-2 cell growth in a cell viability assay.

MZ7-mel = assay type: functional, cell-based, Homo sapiens; details: Homo sapiens, MZ7-mel;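 further: growth inhibition of human MZ7-mel cells, measured by a cell viability assay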
Description: SANGER: Inhibition of human MZ7-mel cell growth in a cell viability assay.

NB14 = assay type: functional, cell-based; details: Homo sapiens;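 further: growth inhibition of NB14 cells measured with a cell viability assay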
Description: SANGER: Inhibition of human NB14 cell growth in a cell viability assay.

NB6 = assay type: functional, cell-based, Homo sapiens; details: Homo sapiens, NB6;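 further: growth inhibition of NB6 cells, read out by a cell viability assay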
Description: SANGER: Inhibition of human NB6 cell growth in a cell viability assay.

NCI-H2052 = assay type: functional, cell-based, Homo sapiens; details: Homo sapiens, NCI-H2052;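 further: growth inhibition of NCI-H2052 cells, read out with a cell viability assay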
Description: SANGER: Inhibition of human NCI-H2052 cell growth in a cell viability assay.

NCI-H28 = assay type: functional, cell-based, Homo sapiens; details: Homo sapiens, NCI-H28;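 further: growth inhibition of human NCI-H28 cells, read out as cell viability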
Description: SANGER: Inhibition of human NCI-H28 cell growth in a cell viability assay.

NCI-N87 = assay type: functional, cell-based, Homo sapiens; details: Homo sapiens, NCI-N87;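 further: growth inhibition of human NCI-N87 cells, read out with a cell viability assay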
Description: SANGER: Inhibition of human NCI-N87 cell growth in a cell viability assay.

NOMO-1 = assay type: functional, cell-based; details: Homo sapiens;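 further: growth inhibition of human NOMO-1 cells measured by a cell viability assay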
Description: SANGER: Inhibition of human NOMO-1 cell growth in a cell viability assay.

OCI-AML2 = assay type: functional, cell-based; details: Homo sapiens;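 further: growth inhibition of OCI-AML2 cells, read out with a cell viability assay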
Description: SANGER: Inhibition of human OCI-AML2 cell growth in a cell viability assay.

OVCAR-5 = assay type: functional, cell-based, Homo sapiens; details: Homo sapiens, OVCAR-5;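 further: growth inhibition of human OVCAR-5 cells, read out with a cell viability assay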
Description: SANGER: Inhibition of human OVCAR-5 cell growth in a cell viability assay.

PC-3 = assay type: functional, cell-based, Homo sapiens; details: Homo sapiens, PC-3;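 further: cell viability assay measuring growth inhibition of PC-3 cells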
Description: SANGER: Inhibition of human PC-3 cell growth in a cell viability assay.

RD = assay type: functional, cell-based, Homo sapiens; details: Homo sapiens, RD
Description: SANGER: Inhibition of human RD cell growth in a cell viability assay.

RPMI-8226 = assay type: functional, cell-based; details: Homo sapiens
Description: SANGER: Inhibition of human RPMI-8226 cell growth in a cell viability assay.

RXF 393 = assay type: functional, cell-based; details: Homo sapiens;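 further: growth inhibition of human RXF 393 cells, read out with a cell viability assay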
Description: SANGER: Inhibition of human RXF393 cell growth in a cell viability assay.

SBC-1 = assay type: functional, cell-based; details: Homo sapiens;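 further: cell viability assay measuring growth inhibition of the SBC-1 cell line, IC50 being the concentration that halves growth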
Description: SANGER: Inhibition of human SBC-1 cell growth in a cell viability assay.

SF-295 = assay type: functional, cell-based, Homo sapiens; details: Homo sapiens, SF-295; read-out: IC50;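 further: growth inhibition of SF-295 cells, read out with a cell viability assay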
Description: SANGER: Inhibition of human SF295 cell growth in a cell viability assay.

SK-MEL-2 = assay type: functional, cell-based, Homo sapiens; details: Homo sapiens, SK-MEL-2;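 further: growth inhibition of human SK-MEL-2 cells measured with a cell viability assay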
Description: SANGER: Inhibition of human SK-MEL-2 cell growth in a cell viability assay.

SKG-IIIa = assay type: functional, cell-based, Homo sapiens; details: Homo sapiens, SKG-IIIa;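 further: cell growth inhibition, read out with a cell viability assay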
Description: SANGER: Inhibition of human SKG-IIIa cell growth in a cell viability assay.

SW837 = assay type: functional, cell-based, Homo sapiens; details: Homo sapiens, SW837;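 further: growth inhibition of SW837 cells, determined with a cell viability assay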
Description: SANGER: Inhibition of human SW837 cell growth in a cell viability assay.

769-P = assay type: functional, cell-based, Homo sapiens; details: Homo sapiens, 769-P
Description: SANGER: Inhibition of human 769-P cell growth in a cell viability assay.

786-0 = assay type: functional, cell-based, Homo sapiens; details: Homo sapiens
Description: SANGER: Inhibition of human 786-0 cell growth in a cell viability assay.

8305C = assay type: functional, cell-based, Homo sapiens; details: Homo sapiens, 8305C
Description: SANGER: Inhibition of human 8305C cell growth in a cell viability assay.

A2780 = assay type: functional, cell-based, Homo sapiens; details: Homo sapiens, A2780;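 further: growth inhibition of A2780 cells, read out with a cell viability assay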
Description: SANGER: Inhibition of human A2780 cell growth in a cell viability assay.

BB30-HNC = assay type: functional, cell-based, Homo sapiens; details: Homo sapiens, BB30-HNC;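 further: growth inhibition of the cultured cell line, read out by a cell viability assay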
Description: SANGER: Inhibition of human BB30-HNC cell growth in a cell viability assay.

BHT-101 = assay type: functional, cell-based, Homo sapiens; details: Homo sapiens, BHT-101
Description: SANGER: Inhibition of human BHT-101 cell growth in a cell viability assay.

Becker = assay type: functional, cell-based, Homo sapiens; details: Homo sapiens, Becker;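 further: growth inhibition of Becker cells, read out with a cell viability assay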
Description: SANGER: Inhibition of human Becker cell growth in a cell viability assay.

C-33-A = assay type: functional, cell-based, Homo sapiens; details: Homo sapiens, C-33-A;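 further: cell viability assay measuring growth inhibition of C-33-A cells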
Description: SANGER: Inhibition of human C-33-A cell growth in a cell viability assay.

CAL-27 = assay type: functional, cell-based, Homo sapiens; details: Homo sapiens, CAL-27;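 further: Viability-based readout, IC50 reflecting inhibition of CAL-27 cell growth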
Description: SANGER: Inhibition of human CAL-27 cell growth in a cell viability assay.

TE-10 = assay type: functional, cell-based, Homo sapiens; details: Homo sapiens, TE-10;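 further: growth inhibition of TE-10 cells, measured by a cell viability assay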
Description: SANGER: Inhibition of human TE-10 cell growth in a cell viability assay.

TE-9 = assay type: functional, cell-based, Homo sapiens; details: Homo sapiens, TE-9;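 further: cell growth inhibition, measured with a cell viability readout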
Description: SANGER: Inhibition of human TE-9 cell growth in a cell viability assay.

UMUC3 = assay type: functional, cell-based, Homo sapiens; details: Homo sapiens, UMUC3;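 further: growth inhibition of human UM-UC-3 cells, read out with a cell viability assay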
Description: SANGER: Inhibition of human UM-UC-3 cell growth in a cell viability assay.

Measured: IC50

CCOc1nc(NC(=O)Cc2cc(OC)ccc2OC)cc(N)c1C#N
> 10 µM: all assays above
